Experiment [1] deals with Lysine-specific demethylase 5B (Homo sapiens, UniProt Q9UGL1). In words: Inhibition of recombinant human N-terminal His-FLAG tagged JARID1B (2 to 751 residues) expressed in baculovirus infected sf9 cells using H3K4me3-biotin peptide as substrate after 30 mins in presence of alpha-ketoglutaric acid by LANCE TR-FRET assay.
The target of experiment [2] is T1, Lysine-specific demethylase 4C (Homo sapiens, UniProt Q9H3R0).
T1 sequence (Q9H3R0 whole entry): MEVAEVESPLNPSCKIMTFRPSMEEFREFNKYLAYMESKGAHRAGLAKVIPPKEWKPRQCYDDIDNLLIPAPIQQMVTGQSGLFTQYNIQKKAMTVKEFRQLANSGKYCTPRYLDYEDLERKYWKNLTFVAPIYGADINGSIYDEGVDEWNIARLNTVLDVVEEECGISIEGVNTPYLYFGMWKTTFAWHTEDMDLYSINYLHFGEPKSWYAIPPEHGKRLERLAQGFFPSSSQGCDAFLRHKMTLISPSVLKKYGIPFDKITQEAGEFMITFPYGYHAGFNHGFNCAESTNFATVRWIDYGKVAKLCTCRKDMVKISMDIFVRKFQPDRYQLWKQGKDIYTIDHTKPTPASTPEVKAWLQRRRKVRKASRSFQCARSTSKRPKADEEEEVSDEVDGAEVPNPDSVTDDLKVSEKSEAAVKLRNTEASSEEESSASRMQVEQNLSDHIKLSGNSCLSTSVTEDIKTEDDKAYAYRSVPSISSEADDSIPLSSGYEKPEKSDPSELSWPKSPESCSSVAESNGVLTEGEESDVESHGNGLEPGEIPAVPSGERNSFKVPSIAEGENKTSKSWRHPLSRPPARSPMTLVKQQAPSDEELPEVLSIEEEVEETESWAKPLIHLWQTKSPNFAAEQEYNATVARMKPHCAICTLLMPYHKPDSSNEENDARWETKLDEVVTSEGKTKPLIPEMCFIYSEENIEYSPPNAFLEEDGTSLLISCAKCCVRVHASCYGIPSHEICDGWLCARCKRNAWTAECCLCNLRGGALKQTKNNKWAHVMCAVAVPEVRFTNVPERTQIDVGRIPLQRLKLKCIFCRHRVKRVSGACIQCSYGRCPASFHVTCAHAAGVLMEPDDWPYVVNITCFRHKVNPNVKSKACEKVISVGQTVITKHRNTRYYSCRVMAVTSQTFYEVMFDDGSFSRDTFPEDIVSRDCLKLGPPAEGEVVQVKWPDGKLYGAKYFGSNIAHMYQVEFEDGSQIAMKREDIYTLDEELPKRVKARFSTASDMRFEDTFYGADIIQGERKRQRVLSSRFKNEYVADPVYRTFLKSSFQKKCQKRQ
In words: Inhibition of recombinant human N-terminal GST-tagged JMJD2C (2 to 372 residues) expressed in baculovirus infected sf9 cells using H3K9me3-biotin peptide as substrate after 30 mins in presence of alpha-ketoglutaric acid by LANCE TR-FRET assay. (In general: TR-FRET usually uses a lanthanide donor and a delayed reading to cut background.)

Experiment [3] concerns the target T2, Lysine-specific demethylase 2B (Homo sapiens, UniProt Q8NHM5).
T2 sequence (Q8NHM5 whole entry): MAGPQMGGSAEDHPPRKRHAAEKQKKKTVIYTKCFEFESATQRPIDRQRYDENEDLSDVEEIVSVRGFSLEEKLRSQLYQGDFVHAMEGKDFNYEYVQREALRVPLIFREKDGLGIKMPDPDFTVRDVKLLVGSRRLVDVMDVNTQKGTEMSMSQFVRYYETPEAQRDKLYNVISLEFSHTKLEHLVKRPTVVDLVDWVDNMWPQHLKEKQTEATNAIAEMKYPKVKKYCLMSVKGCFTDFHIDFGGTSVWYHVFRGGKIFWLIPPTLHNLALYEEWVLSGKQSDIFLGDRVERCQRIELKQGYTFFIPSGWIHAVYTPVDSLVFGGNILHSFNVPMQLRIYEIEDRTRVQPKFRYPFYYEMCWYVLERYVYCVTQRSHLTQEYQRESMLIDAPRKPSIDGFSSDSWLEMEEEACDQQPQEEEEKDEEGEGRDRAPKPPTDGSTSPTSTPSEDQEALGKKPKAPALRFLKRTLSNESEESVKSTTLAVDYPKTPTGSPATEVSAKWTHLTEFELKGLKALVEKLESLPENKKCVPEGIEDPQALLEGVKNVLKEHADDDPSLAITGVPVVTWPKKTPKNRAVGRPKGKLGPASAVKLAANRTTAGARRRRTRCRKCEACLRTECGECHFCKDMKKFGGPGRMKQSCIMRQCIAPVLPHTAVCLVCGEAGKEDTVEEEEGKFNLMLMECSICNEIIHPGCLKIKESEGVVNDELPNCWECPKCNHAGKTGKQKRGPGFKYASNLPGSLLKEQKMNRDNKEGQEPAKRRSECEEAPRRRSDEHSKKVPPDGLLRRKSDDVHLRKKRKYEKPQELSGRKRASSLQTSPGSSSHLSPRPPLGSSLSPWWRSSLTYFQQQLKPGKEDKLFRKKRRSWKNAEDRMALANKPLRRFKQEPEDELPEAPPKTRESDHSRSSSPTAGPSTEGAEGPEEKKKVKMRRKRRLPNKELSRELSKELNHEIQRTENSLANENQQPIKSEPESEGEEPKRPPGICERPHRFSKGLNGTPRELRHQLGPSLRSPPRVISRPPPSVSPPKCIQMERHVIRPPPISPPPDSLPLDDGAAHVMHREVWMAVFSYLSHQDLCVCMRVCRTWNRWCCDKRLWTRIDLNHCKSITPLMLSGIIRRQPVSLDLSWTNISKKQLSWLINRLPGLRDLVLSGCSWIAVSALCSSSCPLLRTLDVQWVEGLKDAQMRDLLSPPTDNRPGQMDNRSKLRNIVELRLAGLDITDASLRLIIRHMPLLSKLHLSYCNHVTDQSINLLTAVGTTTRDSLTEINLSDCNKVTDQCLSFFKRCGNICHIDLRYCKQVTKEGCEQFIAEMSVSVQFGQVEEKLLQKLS
In words: Inhibition of recombinant human C-terminal FLAG-tagged FBXL10 (1 to 650 residues) expressed in baculovirus infected sf9 cells using H3K36me2-biotin peptide as substrate after 30 mins in presence of alpha-ketoglutaric acid by AlphaScreen assay. (Bead proximity is the source of the signal in Alpha formats.)

The target in experiment [4] is Lysine-specific demethylase 5A/5B (Homo sapiens, UniProt P29375+Q9UGL1). In words: Inhibition of KDM5A/KDM5B in human ZR-75-1 cells assessed as increase in H3K4me3 level after 72 hrs by fluorometric immunoblot analysis. Type of experiment: cell-based.

IC50 data for 1 compound are collected here from ChEMBL document CHEMBL4257223, “Histone demethylase inhibitors” (2016).

Structures are written as SMILES.

In general, IC50 refers to the concentration at which inhibition is half-maximal.

Lysine-specific demethylase 5B, sequence (Q9UGL1 whole entry, the tested form may be a part): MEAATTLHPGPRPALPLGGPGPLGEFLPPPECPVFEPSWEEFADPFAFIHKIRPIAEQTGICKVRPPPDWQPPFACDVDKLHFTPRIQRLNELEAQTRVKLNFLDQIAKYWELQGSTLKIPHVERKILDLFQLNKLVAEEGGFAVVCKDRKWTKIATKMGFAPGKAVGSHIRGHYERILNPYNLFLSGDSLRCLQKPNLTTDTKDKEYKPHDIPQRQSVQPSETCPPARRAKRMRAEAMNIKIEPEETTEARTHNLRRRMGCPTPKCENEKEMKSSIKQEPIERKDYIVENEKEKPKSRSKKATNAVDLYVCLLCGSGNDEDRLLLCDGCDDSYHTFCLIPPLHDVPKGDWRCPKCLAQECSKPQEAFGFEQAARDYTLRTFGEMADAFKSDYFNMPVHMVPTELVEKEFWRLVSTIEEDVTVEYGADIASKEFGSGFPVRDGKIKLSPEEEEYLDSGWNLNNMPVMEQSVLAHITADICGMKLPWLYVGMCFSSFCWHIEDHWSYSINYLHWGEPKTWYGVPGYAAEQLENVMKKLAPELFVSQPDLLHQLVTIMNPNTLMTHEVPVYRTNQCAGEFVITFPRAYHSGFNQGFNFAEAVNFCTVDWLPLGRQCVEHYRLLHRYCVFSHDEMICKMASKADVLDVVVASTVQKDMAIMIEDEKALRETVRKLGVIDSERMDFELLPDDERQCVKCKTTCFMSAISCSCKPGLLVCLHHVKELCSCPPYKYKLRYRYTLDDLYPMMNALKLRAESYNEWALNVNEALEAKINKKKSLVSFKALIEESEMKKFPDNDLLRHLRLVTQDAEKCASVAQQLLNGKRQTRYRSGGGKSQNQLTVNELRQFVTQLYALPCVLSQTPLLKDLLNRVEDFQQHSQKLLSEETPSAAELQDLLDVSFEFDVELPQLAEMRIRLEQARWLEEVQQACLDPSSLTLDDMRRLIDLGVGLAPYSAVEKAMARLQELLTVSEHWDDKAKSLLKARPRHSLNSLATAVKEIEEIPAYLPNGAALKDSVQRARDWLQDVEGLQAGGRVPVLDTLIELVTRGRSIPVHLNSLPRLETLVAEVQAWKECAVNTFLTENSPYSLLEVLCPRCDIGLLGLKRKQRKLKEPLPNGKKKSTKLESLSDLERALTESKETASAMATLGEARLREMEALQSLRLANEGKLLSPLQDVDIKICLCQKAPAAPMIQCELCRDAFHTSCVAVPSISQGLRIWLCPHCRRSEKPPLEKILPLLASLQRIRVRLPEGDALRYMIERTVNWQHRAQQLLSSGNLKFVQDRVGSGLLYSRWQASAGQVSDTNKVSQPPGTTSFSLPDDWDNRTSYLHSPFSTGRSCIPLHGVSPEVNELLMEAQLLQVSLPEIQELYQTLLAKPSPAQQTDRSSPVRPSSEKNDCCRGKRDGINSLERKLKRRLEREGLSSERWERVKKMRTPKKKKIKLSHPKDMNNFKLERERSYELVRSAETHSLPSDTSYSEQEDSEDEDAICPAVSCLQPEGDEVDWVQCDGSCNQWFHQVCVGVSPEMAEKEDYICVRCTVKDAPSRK

As for `COc1ccc(-c2c(-c3cc(C(=O)O)ccn3)ncn2C)cc1`, the IC50 in experiment [1] lay in the range of 100 to 1000 nM; in experiment [2] it was 1000 to 10000 nM; in experiment [3], 100 to 1000 nM; in experiment [4], 1000 to 10000 nM.
